Legend:
mouse ATB^0,+ [1] = biological target: T1, mouse ATB^0,+ (Mus musculus, UniProt Q9JMA9); assay: Substrate-induced inward currents in X. laevis oocytes expressing mouse ATB^0,+ (two-microelectrode voltage clamp); assay type: cell-based; details: saturation kinetics; NaCl; voltage clamp
T1 sequence (Q9JMA9 1-638): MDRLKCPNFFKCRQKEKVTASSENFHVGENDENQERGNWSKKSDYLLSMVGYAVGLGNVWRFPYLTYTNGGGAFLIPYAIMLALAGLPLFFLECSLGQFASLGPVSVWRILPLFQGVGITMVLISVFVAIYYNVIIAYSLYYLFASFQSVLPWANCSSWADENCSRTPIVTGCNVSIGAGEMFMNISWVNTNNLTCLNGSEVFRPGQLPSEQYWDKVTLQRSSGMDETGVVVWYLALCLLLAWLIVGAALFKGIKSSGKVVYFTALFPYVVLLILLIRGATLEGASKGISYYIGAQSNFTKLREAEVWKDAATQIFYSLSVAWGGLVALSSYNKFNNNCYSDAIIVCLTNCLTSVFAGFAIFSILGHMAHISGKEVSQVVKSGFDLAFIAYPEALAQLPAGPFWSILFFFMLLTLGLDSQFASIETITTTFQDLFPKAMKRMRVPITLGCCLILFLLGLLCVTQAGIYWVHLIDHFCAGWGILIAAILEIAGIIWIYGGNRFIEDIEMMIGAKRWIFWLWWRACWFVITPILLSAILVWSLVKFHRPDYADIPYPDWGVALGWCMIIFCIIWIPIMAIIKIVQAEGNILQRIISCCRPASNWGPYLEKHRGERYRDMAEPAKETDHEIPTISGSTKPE
Method: (§1) Capped cRNA from the cloned mouse or human ATB^0,+ cDNA was synthesized using the mMESSAGE mMACHTNE kit (Ambion, Austin, Tex., U.S.A.). Mature oocytes (stage IV or V) from X. laevis were injected with 50 ng of cRNA. Uninjected oocytes served as controls. The oocytes were used for electrophysiological studies 3-6 days after cRNA injection. Electrophysiological studies were performed by the two-microelectrode voltage-clamp method (Nakanishi et al., 2001, J. Physiol. 532, 297-304). Oocytes were superfused with an NaCl-containing buffer (100 mM NaCl, 2 mM KCl, 1 mM MgCl2, 1 mM CaCl2, 3 mM Hepes, 3 mM Mes and 3 mM Tris, pH 7.5), followed by the same buffer containing tryptophan derivatives. The membrane potential was clamped at −50 mV. The differences between the steady-state currents measured in the presence and absence of substrates were considered as the substrate-induced currents. In the analysis of the saturation kinetics of substrate-induced currents, the kinetic parameter K0.5 (i.e. substrate concentration necessary for induction of half-maximal current) was calculated by fitting the values of the substrate-induced currents to the Michaelis-Menten equation. The Na^+ and Cl^− activation kinetics of substrate-induced currents were analysed by measuring the substrate-specific currents in the presence of increasing concentrations of Na^+ (concentration of Cl^− kept constant at 100 mM) or in the presence of increasing concentrations of Cl^− (concentration of Na^+ kept constant at 100 mM). In these experiments, the composition of the superfusion buffer was modified to contain 2 mM potassium gluconate, 1 mM MgSO4 and 1 mM calcium gluconate in place of KCl, MgCl2 and CaCl2 respectively. The data from these experiments were analysed by the Hill equation to determine the Hill coefficient (h; number of Na^+ and Cl^− ions involved in the activation process). The kinetic parameters were determined by using the commercially available computer program Sigma Plot, version 6.0 (SPSS, Chicago, Ill., U.S.A.). Uninjected oocytes were used to determine the currents induced by tryptophan derivatives due to entry via transporters that may be constitutively expressed in the oocytes. At a concentration of 2.5 mM, the currents induced by these compounds were in the range of 0-3 nA in uninjected oocytes. These currents were less than 2% of the corresponding currents induced in ATB^0,+ cRNA-injected oocytes. Therefore the endogenous currents associated with the constitutively expressed transporters were not considered in the analysis of kinetic parameters of ATB^0,+ transport activity.
The above studies with the mammalian cell expression system have focused on the interaction of 1-methyltryptophan and other tryptophan derivatives with ATB^0,+ by examining the effects of these compounds on the transporter-mediated glycine uptake. These studies have shown convincingly that 1-methyltryptophan interacts with ATB^0,+, with the L-isomer having much higher affinity for the transporter than the D-isomer. However, these studies have not shown whether or not 1-methyltryptophan is actually a transportable substrate for ATB^0,+. It is possible that 1-methyltryptophan inhibits ATB^0,+-mediated glycine uptake simply by blocking the interaction of glycine with the substrate-binding site of the transporter, rather than by actually competing with glycine for the transport process. […] We wanted to know whether 1-methyltryptophan can actually be transported by ATB^0,+. For this, we used the X. laevis oocyte expression system. Since the transport process mediated by ATB^0,+ is electrogenic, exposure of ATB^0,+-expressing oocytes to transportable substrates will induce an inward current in an Na^+- and Cl^−-dependent manner. Exposure of the same oocytes to blockers will interfere with currents induced by transportable substrates, but will not induce currents by themselves. […]

human ATB^0,+ [2] = biological target: T2, human ATB^0,+ (Homo sapiens, UniProt Q9UN76); assay: L-tryptophan-induced inward currents in X. laevis oocytes expressing human ATB^0,+; assay type: cell-based; details: 20 μM L-tryptophan (sub-saturating)
T2 construct: The human ATB^0,+ cDNA was cloned from an MCF7 cell (a human mammary epithelial cancer cell line) cDNA library; expressed in transfected cells; host or cells: Xenopus laevis oocytes injected with 50 ng capped cRNA
T2 sequence (Q9UN76 1-642): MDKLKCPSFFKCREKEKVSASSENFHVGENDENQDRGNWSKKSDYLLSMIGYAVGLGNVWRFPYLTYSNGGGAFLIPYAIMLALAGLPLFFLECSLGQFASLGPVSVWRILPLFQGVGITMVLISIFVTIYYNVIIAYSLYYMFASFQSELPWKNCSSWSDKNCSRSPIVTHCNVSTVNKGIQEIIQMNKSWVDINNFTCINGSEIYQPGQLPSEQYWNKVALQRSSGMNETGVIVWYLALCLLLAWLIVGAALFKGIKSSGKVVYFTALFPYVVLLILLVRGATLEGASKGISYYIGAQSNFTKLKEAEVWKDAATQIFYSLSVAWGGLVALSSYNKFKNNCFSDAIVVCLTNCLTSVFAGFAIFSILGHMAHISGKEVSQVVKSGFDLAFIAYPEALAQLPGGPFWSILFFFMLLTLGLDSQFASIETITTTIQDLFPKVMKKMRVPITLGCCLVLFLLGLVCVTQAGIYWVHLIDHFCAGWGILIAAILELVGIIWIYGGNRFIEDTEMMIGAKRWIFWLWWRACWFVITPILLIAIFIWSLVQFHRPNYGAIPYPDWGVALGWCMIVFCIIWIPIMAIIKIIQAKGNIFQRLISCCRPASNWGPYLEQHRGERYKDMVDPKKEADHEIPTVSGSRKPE
Method: as §1, with “Uninjected oocytes were used to determine the currents induced by tryptophan derivatives due to entry via transporters that may be constitutively expressed in the oocytes. At a concentration of 2.5 mM, the currents induced by these compounds were in the range of 0-3 nA in uninjected oocytes. These currents were less than 2% of the corresponding currents induced in ATB^0,+ cRNA-injected oocytes. Therefore the endogenous currents associated with the constitutively expressed transporters were not considered in the analysis of kinetic parameters of ATB^0,+ transport activity.” left out

mouse ATB^0,+ [3] = biological target: T1, mouse ATB^0,+; assay: Inhibition of ATB^0,+-mediated glycine uptake in HRPE cells expressing cloned mouse ATB^0,+; assay type: cell-based; details: glycine 10 μM; inhibitor 1 mM; 30 min; NaCl; HRPE cells
CCD841 cells [4] = assay: mTOR pathway: phosphorylation of S6 protein and S6 kinase in normal colon cell line; assay type: cell-based, human; details: 24 h exposure
Method: (§2) The mTOR pathway plays a critical role in nutrient signaling in mammalian cells (Wang and Proud, 2006, Physiology (Bethesda) 21: 362-369). Amino acid starvation leads to specific changes in this pathway. We sought evidence for amino acid starvation in ATB^0,+-positive colon cancer cell lines when exposed to α-methyl-L-tryptophan (α-MLT) (250 μM). […] These changes were also accompanied with cell cycle arrest in cancer cell lines (FIG. 16). In the normal cell line CCD841, there was no difference between control and α-MLT-treated cells in terms of percent of cells in difference cell cycle stages. […] The phosphorylation pattern observed in the two cancer cell lines is a hallmark of changes in mTOR pathway in response to amino acid deprivation. Autophagy (self-cannabilism) is another cellular process that is induced when cells undergo amino acid deprivation (Eisenberg-Lerner and Kimchi, 2009, Apoptosis 14: 376-391). To survive in the absence of exogenous essential amino acids during amino acid deprivation, cells engage in autophagic degradation of intracellular macromolecules and organelles as a source of these amino acids. Therefore, we investigated the process of autophagy in LS174T cells with and without exposure to α-MLT for 24 hours. For this, we analyzed the distribution of LC-3 protein. […] Apoptosis was quantified by FACS analysis.

human ATB^0,+ [5] = biological target: T2, human ATB^0,+; assay: Block of inward currents induced by amino acid mixture simulating plasma in X. laevis oocytes expressing human ATB^0,+; assay type: cell-based
Method: as §1
These studies with α-methyl-DL-tryptophan as a blocker of ATB^0,+ were carried out with L-tryptophan at sub-saturating concentrations. […] Therefore, using the Xenopus oocyte heterologous expression system, we monitored the transport activity of human ATB^0,+ in the presence of an amino acid mixture consisting of 18 different amino acids, each at its respective physiological concentration found in plasma (Glew et al., 2004, Clin. Chim. Acta 342, 179-185) (Table 1). Inward currents were detected under these conditions in oocytes expressing human ATB^0,+. […] We then monitored the ability of α-methyl-DL-tryptophan to block the inward currents induced by the same mixture of amino acids in oocytes expressing human ATB^0,+ (FIG. 4B). […]

HCT116 and LS174T cells [6] = assay: Apoptosis (sub-G1 cells, FACS) in colon cancer cell lines; assay type: cell-based, human; details: 72 hours
Method: as §2

CCD841 cells [7] = assay: Autophagy: immunofluorescent localization of LC-3 in normal colon cells; assay type: cell-based, human; details: absence or presence of α-MLT
CCD841 cells [8] = assay: Cell cycle analysis in normal colon cell line; assay type: cell-based, human; details: 250 μM; 24 hour
Method: as §2

HCT116 and LS174T cells [9] = assay: Amino acid starvation markers: ASNS and CHOP gene induction in ATB^0,+-positive colon cancer cell lines; assay type: cell-based, human; details: 250 μM; 24 hour exposure
Method: as §2

LS174T cells = assay: Autophagy: immunofluorescent localization of LC-3 in colon cancer cells; assay type: cell-based, human; details: 24 hours exposure
Method: as §2

HCT116 and LS174T cells [10] = assay: Cell cycle analysis in colon cancer cell lines; assay type: cell-based, human; details: 250 μM; 24 hour
Method: as §2

HCT116 and LS174T cells [11] = assay: mTOR pathway: phosphorylation of S6 protein and S6 kinase in colon cancer cell lines; assay type: cell-based, human; details: 24 h exposure
Method: as §2

| SMILES | Michaelis constant (K0.5) of substrate-induced currents (mouse ATB^0,+ [1]) [µM] | inward currents induced by L-tryptophan (human ATB^0,+ [2]) [nA] | inhibition of ATB^0,+-specific glycine uptake (mouse ATB^0,+ [3]) | phosphorylation of S6 protein and S6 kinase (CCD841 cells [4]) | IC50 (human ATB^0,+ [5]; 18 amino acids at normal plasma concentrations, read-out: concentration necessary to elicit 50% of maximal inhibition (IC50) of amino acid mixture-induced currents) [µM] | IC50 of L-isomer relative to DL-form (times less) (human ATB^0,+ [5]; amino acid mixture simulating plasma) [times] | percent of apoptotic cells (cells in sub-G1 phase) (HCT116 and LS174T cells [6]) | autophagy (CCD841 cells [7]) | percent of cells in different cell cycle stages, control versus treated (CCD841 cells [8]) | induction of ASNS and CHOP genes (HCT116 and LS174T cells [9]) | punctate fluorescent signals for LC-3 (autophagy) (LS174T cells) | percent of cells in G1 phase (HCT116 and LS174T cells [10]) | percent of cells in S and G2/M phases (HCT116 and LS174T cells [10]) | phosphorylation of S6 protein and S6 kinase (HCT116 and LS174T cells [11]) |
| --- | --- | --- | --- | --- | --- | --- | --- | --- | --- | --- | --- | --- | --- | --- |
| N[C@@H](Cc1c[nH]c2ccccc12)C(=O)O [L-tryptophan] | 26 ± 3 | ~30 | inhibited |  |  |  |  |  |  |  |  |  |  |  |
| C[C@](N)(Cc1c[nH]c2ccccc12)C(=O)O [α-methyl-L-tryptophan, α-Methyl-L-Tryptophan] |  |  |  | not in CCD841 cells | 18 ± 5 | 14 | increased the percent of apoptotic cells | did not undergo autophagy | no difference | induced | showed clear evidence of such signals | increased significantly | decreased | decreased phosphorylation |

Reference: patent publication US8436039B2, “Inhibitors of the ATB(0,+) transporter and uses thereof” (Georgia Health Sciences University Research Institute, Inc., priority 2008, dated 2013)
